Laboratory results as given in ChEMBL document CHEMBL3352105, “Design, synthesis and SAR analysis of antitumour styryl lactones related to (+)-crassalactones B and C” (Eur J Med Chem, 2014).
pIC50: −log10 of the molar value.

What was measured:
[1] = test system: K562; experiment: Cytotoxicity against human K562 cells after 72 hrs by MTT assay; assay type: functional, cell-based; conditions: K562, 72 h
[2] = Cytotoxicity against human HL60 cells after 72 hrs by MTT assay; assay type: functional, cell-based; conditions: HL-60, 72 h
[3] = test system: Jurkat; experiment: Cytotoxicity against human Jurkat cells after 72 hrs by MTT assay; assay type: functional, cell-based
[4] = test system: Raji; experiment: Cytotoxicity against human Raji cells after 72 hrs by MTT assay; assay type: functional, cell-based
[5] = test system: MCF7; experiment: Cytotoxicity against human MCF7 cells after 72 hrs by MTT assay; assay type: functional, cell-based; conditions: MCF7, 72 h
[6] = test system: MDA-MB-231; experiment: Cytotoxicity against human MDA-MB-231 cells after 72 hrs by MTT assay; assay type: functional, cell-based; conditions: MDA-MB-231, 72 h
[7] = test system: HeLa; experiment: Cytotoxicity against human HeLa cells after 72 hrs by MTT assay; assay type: functional, cell-based
[8] = test system: MRC5; experiment: Cytotoxicity against human MRC5 cells after 72 hrs by MTT assay; assay type: cell-based; conditions: MRC5, 72 h
[9] = test system: HL-60; experiment: Potency index, ratio of IC50 for doxorubicin to IC50 for test compound against human HL60 cells after 72 hrs by MTT assay; assay type: functional
[10] = test system: Raji; experiment: Potency index, ratio of IC50 for doxorubicin to IC50 for test compound against human Raji cells after 72 hrs by MTT assay; assay type: functional

| Compound | pIC50 [1] | pIC50 [2] | pIC50 [3] | pIC50 [4] | pIC50 [5] | pIC50 [6] | pIC50 [7] | pIC50 [8] | Ratio IC50 [9] | Ratio IC50 [10] |
| --- | --- | --- | --- | --- | --- | --- | --- | --- | --- | --- |
| COc1ccc(/C=C/C(=O)O[C@@H]2[C@H]3OC(=O)C[C@H]3O[C@@H]2[C@H](O)c2ccccc2)cc1 | 5.38 | 4.30 | 4.87 | 5.24 | 4.96 | < 4.00 | 4.73 | < 4.00 | – | – |
| O=C(/C=C/c1ccc([N+](=O)[O-])cc1)O[C@@H]1[C@H]2OC(=O)C[C@H]2O[C@@H]1[C@H](O)c1ccccc1 | 4.83 | 4.32 | 4.35 | 5.08 | < 4.00 | 5.27 | 4.67 | < 4.00 | – | – |
| O=C(/C=C/c1ccc(F)cc1)O[C@@H]1[C@H]2OC(=O)C[C@H]2O[C@@H]1[C@H](O)c1ccccc1 | 4.99 | 4.94 | 4.76 | 4.96 | 4.83 | 4.59 | 4.52 | < 4.00 | – | – |
| COc1ccc(/C=C/C(=O)O[C@H](c2ccccc2)[C@H]2O[C@@H]3CC(=O)O[C@@H]3[C@H]2O)cc1 | 5.49 | 4.38 | 4.37 | 5.36 | 4.91 | < 4.00 | 4.60 | < 4.00 | – | – |
| O=C(/C=C/c1ccc([N+](=O)[O-])cc1)O[C@H](c1ccccc1)[C@H]1O[C@@H]2CC(=O)O[C@@H]2[C@H]1O | 5.65 | 4.84 | 4.98 | 4.79 | 5.28 | 4.48 | 4.45 | < 4.00 | – | – |
| O=C(/C=C/c1ccc(F)cc1)O[C@H](c1ccccc1)[C@H]1O[C@@H]2CC(=O)O[C@@H]2[C@H]1O | 5.34 | 5.02 | 4.74 | 4.84 | 4.73 | 4.53 | 4.62 | < 4.00 | – | – |
| O=C(/C=C/c1ccccc1)O[C@@H]1[C@H]2OC(=O)C[C@H]2O[C@@H]1[C@@H](O)c1ccccc1 | 5.48 | 7.70 | 6.06 | 4.84 | 6.66 | 5.06 | 5.61 | < 4.00 | 46 | – |
| COc1ccc(/C=C/C(=O)O[C@@H]2[C@H]3OC(=O)C[C@H]3O[C@@H]2[C@@H](O)c2ccccc2)cc1 | 5.58 | 6.96 | 5.95 | 5.63 | 4.69 | 5.14 | 5.49 | < 4.00 | – | – |
| O=C(/C=C/c1ccc([N+](=O)[O-])cc1)O[C@@H]1[C@H]2OC(=O)C[C@H]2O[C@@H]1[C@@H](O)c1ccccc1 | 5.95 | 6.44 | 5.45 | 5.99 | 4.25 | 5.58 | 5.78 | < 4.00 | – | 3 |
| O=C(/C=C/c1ccc(F)cc1)O[C@@H]1[C@H]2OC(=O)C[C@H]2O[C@@H]1[C@@H](O)c1ccccc1 | 6.07 | 5.68 | 6.16 | 5.76 | 4.07 | 5.88 | 5.39 | < 4.00 | – | – |
| O=C(/C=C/c1ccccc1)O[C@@H](c1ccccc1)[C@H]1O[C@@H]2CC(=O)O[C@@H]2[C@H]1O | 5.70 | 5.87 | 5.99 | 5.88 | 5.02 | 5.47 | 6.16 | < 4.00 | – | – |
| COc1ccc(/C=C/C(=O)O[C@@H](c2ccccc2)[C@H]2O[C@@H]3CC(=O)O[C@@H]3[C@H]2O)cc1 | 4.94 | 5.06 | 4.73 | 5.07 | 5.02 | 4.54 | 4.96 | < 4.00 | – | – |
| O=C(/C=C/c1ccc([N+](=O)[O-])cc1)O[C@@H](c1ccccc1)[C@H]1O[C@@H]2CC(=O)O[C@@H]2[C@H]1O | 4.85 | 4.98 | 4.61 | 5.36 | 5.38 | 4.19 | 5.40 | < 4.00 | – | – |
| O=C(/C=C/c1ccc(F)cc1)O[C@@H](c1ccccc1)[C@H]1O[C@@H]2CC(=O)O[C@@H]2[C@H]1O | 4.80 | 4.96 | 4.71 | 4.90 | 5.27 | 4.50 | 5.36 | < 4.00 | – | – |
| O=C(/C=C/c1ccccc1)O[C@@H]1[C@H]2OC(=O)C[C@H]2O[C@@H]1[C@H](OC(=O)/C=C/c1ccccc1)c1ccccc1 | 4.67 | 5.48 | 5.58 | 4.96 | < 4.00 | < 4.00 | 4.91 | 4.31 | – | – |
| O=C(/C=C/c1ccccc1)O[C@@H]1[C@H]2OC(=O)C[C@H]2O[C@@H]1[C@@H](OC(=O)/C=C/c1ccccc1)c1ccccc1 | 5.67 | 6.82 | 6.51 | 4.99 | 5.79 | 5.17 | 5.84 | < 4.00 | – | – |
| O=C(/C=C/c1ccccc1)OC1C2OC(=O)CC2O[C@@H]1Cc1ccccc1 (single isomer, unassigned) | 5.33 | 5.66 | 6.54 | 6.06 | 4.23 | 5.36 | 5.90 | < 4.00 | – | – |
| COc1ccc(/C=C/C(=O)OC2C3OC(=O)CC3O[C@@H]2Cc2ccccc2)cc1 (single isomer, unassigned) | 5.99 | 6.57 | 6.08 | 5.45 | 4.21 | 5.36 | 6.03 | < 4.00 | – | – |
| O=C(/C=C/c1ccc([N+](=O)[O-])cc1)OC1C2OC(=O)CC2O[C@@H]1Cc1ccccc1 (single isomer, unassigned) | 6.01 | 6.85 | 5.43 | 5.57 | 4.64 | 5.27 | 6.06 | < 4.00 | – | – |
| O=C(/C=C/c1ccc(F)cc1)OC1C2OC(=O)CC2O[C@@H]1Cc1ccccc1 (single isomer, unassigned) | 6.60 | 5.99 | 5.58 | 5.82 | 4.54 | 5.09 | 5.99 | < 4.00 | – | – |
| O=C(/C=C/c1ccccc1)O[C@@H]1[C@H]([C@@H](O)c2ccccc2)O[C@H]2CC(=O)O[C@@H]12 [(+)-CRASSALACTONE B] | 6.11 | 5.60 | 6.92 | 4.84 | 6.07 | 5.27 | 6.01 | < 4.00 | – | – |
| O=C(/C=C/c1ccccc1)O[C@H](c1ccccc1)[C@H]1O[C@@H]2CC(=O)O[C@@H]2[C@H]1O [(+)-CRASSALACTONE C] | – | < 4.00 | – | – | 5.13 | 4.06 | – | < 4.00 | – | – |
| COc1cccc2c1C(=O)c1c(O)c3c(c(O)c1C2=O)C[C@@](O)(C(=O)CO)C[C@@H]3O[C@H]1C[C@H](N)[C@H](O)[C@H](C)O1 [DOXORUBICIN] | – | 6.04 | – | – | – | – | 7.19 | – | – | – |
